Reference: patent US20250154144A1 (CHILDREN'S HOSPITAL MEDICAL CENTER, priority 2021, published 2025)
Read-outs that look alike come from different tables or passages of the source.

Assays:
FLT3 ITD = target: T1, FLT3 ITD (Homo sapiens, UniProt P36888); test: DiscoverX KINOMEscan competition binding, FLT3 ITD; conditions: read-out: FLT3 ITD Kd
T1 sequence (P36888 1-993): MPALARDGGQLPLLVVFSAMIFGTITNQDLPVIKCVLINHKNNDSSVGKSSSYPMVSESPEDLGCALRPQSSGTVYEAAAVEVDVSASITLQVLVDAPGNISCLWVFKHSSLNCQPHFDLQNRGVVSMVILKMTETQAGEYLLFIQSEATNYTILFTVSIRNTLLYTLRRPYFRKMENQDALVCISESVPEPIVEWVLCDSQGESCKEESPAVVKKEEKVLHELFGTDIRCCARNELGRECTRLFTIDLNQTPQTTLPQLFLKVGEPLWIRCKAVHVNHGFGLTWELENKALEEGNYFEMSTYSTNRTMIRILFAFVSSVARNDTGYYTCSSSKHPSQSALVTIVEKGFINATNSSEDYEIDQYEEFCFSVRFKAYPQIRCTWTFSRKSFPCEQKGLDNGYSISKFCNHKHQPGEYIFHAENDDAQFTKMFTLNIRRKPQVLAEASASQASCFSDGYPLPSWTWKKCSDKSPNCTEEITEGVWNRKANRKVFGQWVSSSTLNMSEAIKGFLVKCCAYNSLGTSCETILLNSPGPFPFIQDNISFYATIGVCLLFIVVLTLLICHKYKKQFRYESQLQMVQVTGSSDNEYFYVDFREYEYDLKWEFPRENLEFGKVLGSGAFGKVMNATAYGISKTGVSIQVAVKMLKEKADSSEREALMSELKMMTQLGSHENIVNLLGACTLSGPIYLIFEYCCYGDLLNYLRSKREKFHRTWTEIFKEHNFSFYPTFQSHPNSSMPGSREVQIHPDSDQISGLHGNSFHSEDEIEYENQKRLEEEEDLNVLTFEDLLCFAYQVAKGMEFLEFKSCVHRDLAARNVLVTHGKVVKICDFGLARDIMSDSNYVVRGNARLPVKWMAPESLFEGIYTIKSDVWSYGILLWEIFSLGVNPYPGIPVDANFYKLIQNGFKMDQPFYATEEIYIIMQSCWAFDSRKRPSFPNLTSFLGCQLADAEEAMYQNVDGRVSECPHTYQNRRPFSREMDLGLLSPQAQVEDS

IRAK1 = IRAK1 (Homo sapiens, UniProt P51617); test: RBC HotSpot Kinase Assay, IRAK1; conditions: IRAK1 IC50
Sequence of IRAK1 (P51617 whole entry): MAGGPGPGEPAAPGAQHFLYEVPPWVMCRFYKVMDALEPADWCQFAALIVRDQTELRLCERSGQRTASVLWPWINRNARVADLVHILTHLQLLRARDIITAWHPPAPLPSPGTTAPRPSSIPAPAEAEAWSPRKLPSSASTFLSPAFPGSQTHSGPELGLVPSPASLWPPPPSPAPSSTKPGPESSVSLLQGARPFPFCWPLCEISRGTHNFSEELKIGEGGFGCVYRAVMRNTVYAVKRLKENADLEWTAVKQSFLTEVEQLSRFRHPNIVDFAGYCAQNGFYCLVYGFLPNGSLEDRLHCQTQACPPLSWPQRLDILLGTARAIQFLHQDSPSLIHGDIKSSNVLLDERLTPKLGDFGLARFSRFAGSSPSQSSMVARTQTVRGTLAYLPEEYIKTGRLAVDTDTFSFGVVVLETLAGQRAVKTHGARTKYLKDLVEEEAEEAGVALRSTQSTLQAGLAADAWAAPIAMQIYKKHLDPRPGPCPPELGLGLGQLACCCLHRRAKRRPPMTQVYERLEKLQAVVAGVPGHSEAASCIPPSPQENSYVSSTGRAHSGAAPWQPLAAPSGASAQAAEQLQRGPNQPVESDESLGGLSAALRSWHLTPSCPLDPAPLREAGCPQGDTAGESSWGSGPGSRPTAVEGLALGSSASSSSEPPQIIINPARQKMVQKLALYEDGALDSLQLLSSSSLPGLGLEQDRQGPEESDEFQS

IRAK4 [1] = target: T2, IRAK4 (Homo sapiens, UniProt Q9NWZ3); test: DiscoverX KINOMEscan competition binding, IRAK4; set-up: purchased RBC (Reaction Biology) HotSpot assay
T2 sequence (Q9NWZ3 1-460): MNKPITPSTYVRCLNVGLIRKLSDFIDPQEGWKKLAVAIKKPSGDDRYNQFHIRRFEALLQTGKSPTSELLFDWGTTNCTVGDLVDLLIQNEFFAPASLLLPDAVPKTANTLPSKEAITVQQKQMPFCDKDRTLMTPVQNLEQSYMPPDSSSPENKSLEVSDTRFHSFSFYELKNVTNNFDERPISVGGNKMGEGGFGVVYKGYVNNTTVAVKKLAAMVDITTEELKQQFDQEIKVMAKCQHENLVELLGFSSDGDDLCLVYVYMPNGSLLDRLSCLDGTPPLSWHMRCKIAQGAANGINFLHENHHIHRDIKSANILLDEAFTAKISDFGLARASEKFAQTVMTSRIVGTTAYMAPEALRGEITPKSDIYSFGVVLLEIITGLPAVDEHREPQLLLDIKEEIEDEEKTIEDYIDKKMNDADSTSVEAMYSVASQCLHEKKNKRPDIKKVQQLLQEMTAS

FLT3 = target: T3, FLT3 (Homo sapiens, UniProt P36888); test: Reaction Biology NanoBRET target engagement assay in HEK-293 cells, FLT3
T3 sequence (P36888 27-993): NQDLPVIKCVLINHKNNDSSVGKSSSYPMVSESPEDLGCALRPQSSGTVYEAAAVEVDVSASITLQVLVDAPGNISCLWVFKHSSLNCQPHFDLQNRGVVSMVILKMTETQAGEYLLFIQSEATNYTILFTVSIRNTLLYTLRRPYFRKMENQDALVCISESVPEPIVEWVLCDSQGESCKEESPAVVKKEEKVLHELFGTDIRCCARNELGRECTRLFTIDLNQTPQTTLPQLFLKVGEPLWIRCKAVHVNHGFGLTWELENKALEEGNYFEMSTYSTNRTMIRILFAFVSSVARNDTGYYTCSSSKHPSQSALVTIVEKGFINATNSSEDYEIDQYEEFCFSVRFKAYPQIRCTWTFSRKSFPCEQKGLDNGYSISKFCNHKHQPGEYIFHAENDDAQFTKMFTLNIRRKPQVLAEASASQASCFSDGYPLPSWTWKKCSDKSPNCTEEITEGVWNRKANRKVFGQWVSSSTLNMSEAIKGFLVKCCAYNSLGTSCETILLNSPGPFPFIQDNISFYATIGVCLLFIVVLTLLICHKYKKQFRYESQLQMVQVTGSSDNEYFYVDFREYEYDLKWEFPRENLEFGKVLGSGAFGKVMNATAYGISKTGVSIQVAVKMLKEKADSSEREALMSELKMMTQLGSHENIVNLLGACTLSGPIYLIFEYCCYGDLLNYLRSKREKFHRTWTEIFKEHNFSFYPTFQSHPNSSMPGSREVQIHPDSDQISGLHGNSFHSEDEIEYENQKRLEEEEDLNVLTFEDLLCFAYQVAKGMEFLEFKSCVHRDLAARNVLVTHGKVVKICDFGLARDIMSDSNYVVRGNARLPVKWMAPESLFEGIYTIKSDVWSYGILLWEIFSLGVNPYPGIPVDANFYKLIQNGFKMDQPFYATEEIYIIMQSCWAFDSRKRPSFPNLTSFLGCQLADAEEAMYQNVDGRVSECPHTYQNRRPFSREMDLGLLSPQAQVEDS

IRAK4 [2] = target: T2, IRAK4; test: Reaction Biology NanoBRET target engagement assay in HEK-293 cells, IRAK4; conditions: NanoBRET IRAK4 IC50, HEK-293 cells
[3] = NanoBRET FLT3 IC50, HEK-293 cells

SMILES | Kd (FLT3 ITD) | IC50 (IRAK1) | Kd (IRAK4 [1]) | IC50 (FLT3; [3]) | IC50 (IRAK4 [2]) | IC50 (FLT3)
F[C@H]1CCNC[C@@H]1Nc1cncc(-c2cnc3cc(OC4CC4)ccn23)n1 [Compound 12, 6-(7-cyclopropoxyimidazo[1,2-a]pyridin-3-yl)-N-((3S,4S)-4-fluoropiperidin-3-yl)pyrazin-2-amine] | 0.87 nM | 18 nM | 0.81 nM | 177 nM | 1 nM | –
COc1cc2ncc(-c3cncc(N[C@H]4CNC[C@@H]4F)n3)n2nc1C1CC1 [Compound 22, 6-(6-cyclopropyl-7-methoxyimidazo[1,2-b]pyridazin-3-yl)-N-((3S,4S)-4-fluoropyrrolidin-3-yl)pyrazin-2-amine] | 0.67 nM | 61 nM | 0.84 nM | – | 9 nM | 322 nM
COc1cc2ncc(-c3cncc(N[C@H]4CNCC[C@@H]4F)n3)n2nc1C1CC1 [Compound 24, 6-(6-cyclopropyl-7-methoxyimidazo[1,2-b]pyridazin-3-yl)-N-((3S,4S)-4-fluoropiperidin-3-yl)pyrazin-2-amine] | 0.97 nM | 40 nM | 0.22 nM | 19 nM | 1 nM | –
COc1cc2ncc(-c3ccnc(N[C@@H]4CCCNC4)n3)n2cc1C(C)(C)O [Compound 44, (R)-2-(7-methoxy-3-(2-(piperidin-3-ylamino)pyrimidin-4-yl)imidazo[1,2-a]pyridin-6-yl)propan-2-ol] | 0.42 nM | 1 nM | 0.072 nM | 18 nM | < 0.5 nM | –
COc1cc2ncc(-c3ccnc(N[C@H]4CNCC[C@@H]4F)n3)n2nc1C1CC1 [Compound 51, 4-(6-cyclopropyl-7-methoxyimidazo[1,2-b]pyridazin-3-yl)-N-((3S,4S)-4-fluoropiperidin-3-yl)pyrimidin-2-amine] | 2 nM | 11 nM | 0.57 nM | 9 nM | 1 nM | –

The next lines start with the values.

Kd (FLT3 ITD) | IC50 (IRAK1) | Kd (IRAK4 [1]) | IC50 (FLT3; [3]) | IC50 (IRAK4 [2]) | IC50 (FLT3) | SMILES
0.62 nM | 3 nM | 0.38 nM | 992 nM | < 0.5 nM | – | CC(O)(c1cn2c(-c3ccnc(N[C@H]4CNCC[C@@H]4F)n3)cnc2cn1)C(F)(F)F (single isomer, unassigned) [Compound 72]
0.59 nM | 11 nM | 0.56 nM | – | – | – | COc1cc2ncc(-c3ccnc(N[C@H]4CNC[C@@H]4F)n3)n2nc1C1CC1 [Compound 49, 4-(6-cyclopropyl-7-methoxyimidazo[1,2-b]pyridazin-3-yl)-N-((3S,4S)-4-fluoropyrrolidin-3-yl)pyrimidin-2-amine]
– | 63 nM | – | – | – | – | COc1cc2ncc(-c3ccnc(N[C@@H]4CCCNC4)n3)n2nc1C1CC1 [Compound 50, (R)-4-(6-cyclopropyl-7-methoxyimidazo[1,2-b]pyridazin-3-yl)-N-(piperidin-3-yl)pyrimidin-2-amine]
